Source: patent US20060167019A1, “Fungicidal mixtures based on a trizolopyrimidine derivative” (priority 2003, published 2006)

Tested on: Plasmopara viticola
Experiment: Activity against peronospora of grapevines caused by Plasmopara viticola (protective spray on potted vines)
Assay type: in vivo
Details: individual active compound, potted vines cultivar Müller-Thurgau, untreated control 84% infection
Procedure: The active compounds, separately or jointly, were prepared as a stock solution comprising 0.25% by weight of active compound in acetone or DMSO. 1% by weight of the emulsifier Uniperol® EL (wetting agent having emulsifying and dispersant action based on ethoxylated alkylphenols) was added to this solution, and the mixture was diluted with water to the desired concentration.
Leaves of potted vines of the cultivar “Müller-Thurgau” were sprayed to runoff point with an aqueous suspension having the concentration of active compound stated below. The next day, the undersides of the leaves were inoculated with an aqueous zoospore suspension of Plasmopara viticola. The grapevines were then initially placed in a water-vapor-saturated chamber at 24° C. for 48 hours and then in a greenhouse at 20-30° C. for 5 days. After this period of time, the plants were again placed in a humid chamber for 16 hours to promote sporangiophore eruption. The extent of the development of the disease on the undersides of the leaves was then determined visually.
The visually determined percentages of infected leaf areas were converted into efficacies in % of the untreated control:
The efficacy (E) is calculated as follows using Abbot's formula: E=(1−α/β)−100 α corresponds to the fungicidal infection of the treated plants in % and β corresponds to the fungicidal infection of the untreated (control) plants in %
An efficacy of 0 means that the infection level of the treated plants corresponds to that of the untreated control plants; an efficacy of 100 means that the treated plants are not infected.
The expected efficacies of mixtures of active compounds were determined using Colby's formula (Colby, S. R. “Calculating synergistic and antagonistic responses of herbicide combinations”, Weeds, 15, 20-22, 1967) and compared with the observed efficacies.
Colby's formula: E=x+y−x·y/100 • E expected efficacy, expressed in % of the untreated control, when using the mixture of the active compounds A and B at the concentrations a and b • x efficacy, expressed in % of the untreated control, when using the active compound A at the concentration a • y efficacy, expressed in % of the untreated control, when using the active compound B at the concentration b

SMILES | Efficacy in % of the untreated control (0.25 ppm in the spray liquor) [%] | Efficacy in % of the untreated control (1 ppm in the spray liquor) [%]
CC1CCN(c2c(-c3c(F)cccc3Cl)c(Cl)nc3ncnn23)CC1 [Comparison A] | 0 | 0
C[C@H](Nc1c(-c2c(F)cc(F)cc2F)c(Cl)nc2ncnn12)C(F)(F)F [Comparison B] | 5 | 17
CC1CCN(c2c(-c3c(F)cc(F)cc3F)c(Cl)nc3ncnn23)CC1 [I, 5-chloro-7-(4-methylpiperidin-1-yl)-6-(2,4,6-trifluorophenyl)-[1,2,4]triazolo[1,5-a]pyrimidine] | 0 | 17
